Legend:
[1] = molecular target: KRAS G12V (Homo sapiens, UniProt P01116, G12V); assay: GDP-GTP exchange assay (bodipy-GDP/GppNHp, SOS1), KRAS G12V; type: biochemical; settings: KRAS G12V mutant; value for the most potent isomer quoted for certain compounds; read-out: G12V (KRAS G12V exchange assay IC50)
[2] = molecular target: KRAS G12D (Homo sapiens, UniProt P01116, G12D); assay: GDP-GTP exchange assay (bodipy-GDP/GppNHp, SOS1), KRAS G12D; type: biochemical; settings: bodipy-loaded KRAS G12D 2.5 nM, 4 h pre-incubation; value for the most potent isomer quoted for certain compounds; read-out: G12D (KRAS G12D exchange assay IC50)
Chain of KRAS G12D (P01116 1-188 isoform P01116-2 G12D): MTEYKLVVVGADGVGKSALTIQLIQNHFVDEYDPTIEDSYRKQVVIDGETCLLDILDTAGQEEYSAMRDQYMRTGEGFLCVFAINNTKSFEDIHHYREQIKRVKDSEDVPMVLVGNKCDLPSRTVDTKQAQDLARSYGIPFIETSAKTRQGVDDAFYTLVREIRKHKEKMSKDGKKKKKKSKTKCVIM

Chain of KRAS G12V (P01116 1-188 isoform P01116-2 G12V): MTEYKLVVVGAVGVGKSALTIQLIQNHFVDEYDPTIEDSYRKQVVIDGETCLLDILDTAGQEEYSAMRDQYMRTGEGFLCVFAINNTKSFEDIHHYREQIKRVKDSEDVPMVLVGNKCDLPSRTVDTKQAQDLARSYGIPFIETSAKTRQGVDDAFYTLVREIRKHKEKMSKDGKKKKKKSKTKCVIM

Row | Compound | IC50 [1] [µM] | IC50 [2] [µM]
1 | Cc1nc2c(F)c(-c3cccc(Cl)c3Cl)c(CCC#N)cc2c2c1cc([C@H]1C[C@H](n3cc(Cn4ccccc4=O)nn3)CN1C(=O)C1CC1)n2[C@H]1[C@H]2CN[C@@H]1C2 [Example 324] | ≤ 0.1 | ≤ 0.1
2 | Cc1nc2c(F)c(-c3cccc(Cl)c3Cl)c(CCC#N)cc2c2c1cc([C@H]1C[C@H](Oc3cnn(C(C)C)c3)CN1C(=O)C1CC1)n2[C@H]1[C@H]2CN[C@@H]1C2 [Example 442] | ≤ 0.1 | ≤ 0.1
3 | Cc1nc2c(F)c(-c3cccc(Cl)c3Cl)c(CCC#N)cc2c2c1cc([C@H]1C[C@H](OCc3ccccc3C(F)(F)F)CN1C(=O)C1CC1)n2[C@H]1[C@H]2CN[C@@H]1C2 [Example 117] | ≤ 0.1 | ≤ 0.1
4 | Cc1cccc(CO[C@H]2C[C@H](c3cc4c(C)nc5c(F)c(-c6cccc(Cl)c6Cl)c(CCC#N)cc5c4n3[C@H]3[C@H]4CN[C@@H]3C4)N(C(=O)C3CC3)C2)c1 [Example 91] | ≤ 0.1 | ≤ 0.1
5 | Cc1nc2c(F)c(-c3cccc(Cl)c3Cl)c(CCC#N)cc2c2c1cc([C@H]1C[C@H](Oc3cc(C(F)(F)F)nn3C)CN1C(=O)C1CC1)n2[C@H]1[C@H]2CN[C@@H]1C2 [Example 375] | ≤ 0.1 | ≤ 0.1
6 | Cc1nc2c(F)c(-c3cccc(Cl)c3Cl)c(CCC#N)cc2c2c1cc([C@H]1C[C@H](Oc3cc(N4CC(OC(F)F)C4)ccn3)CN1C(=O)C1CC1)n2[C@H]1[C@H]2CN[C@@H]1C2 [Example 369] | ≤ 0.1 | ≤ 0.1
7 | Cc1nc2c(F)c(-c3cccc(Cl)c3Cl)c(CCC#N)cc2c2c1cc([C@H]1C[C@H](OCc3ccccc3C#N)CN1C(=O)C1CC1)n2[C@H]1[C@H]2CN[C@@H]1C2 [Example 98] | ≤ 0.1 | ≤ 0.1
8 | Cc1nc2c(F)c(-c3cccc(Cl)c3Cl)c(CCC#N)cc2c2c1cc([C@H]1C[C@H](OCc3ccc(C(F)(F)F)nc3)CN1C(=O)C1CC1)n2[C@H]1[C@H]2CN[C@@H]1C2 [Example 260] | ≤ 0.1 | ≤ 0.1
9 | Cc1cc(C)cc(O[C@H]2C[C@H](c3cc4c(C)nc5c(F)c(-c6cccc(Cl)c6Cl)c(CCC#N)cc5c4n3[C@H]3[C@H]4CN[C@@H]3C4)N(C(=O)C3CC3)C2)c1 [Example 166] | ≤ 0.1 | ≤ 0.1
10 | COC(=O)C1CCC(c2cn([C@H]3C[C@H](c4cc5c(C)nc6c(F)c(-c7cccc(Cl)c7Cl)c(CCC#N)cc6c5n4[C@H]4[C@H]5CN[C@@H]4C5)N(C(=O)C4CC4)C3)nn2)C1 (some centres unmarked) [Example 391] | ≤ 0.1 | ≤ 0.1
11 | Cc1nc2c(F)c(-c3cccc(Cl)c3Cl)c(CCC#N)cc2c2c1cc([C@H]1C[C@H](OCc3cccc(C#N)c3F)CN1C(=O)C1CC1)n2[C@H]1[C@H]2CN[C@@H]1C2 [Example 151] | ≤ 0.1 | ≤ 0.1
12 | Cc1nc2c(F)c(-c3cccc(Cl)c3Cl)c(CCC#N)cc2c2c1cc([C@H]1C[C@H](OCc3ccccc3S(C)(=O)=O)CN1C(=O)C1CC1)n2[C@H]1[C@H]2CN[C@@H]1C2 [Example 163] | ≤ 0.1 | ≤ 0.1
13 | Cc1nc2c(F)c(-c3cccc(Cl)c3Cl)c(CCC#N)cc2c2c1cc([C@H]1C[C@H](OCc3cn(C4CC4)nn3)CN1C(=O)C1CC1)n2[C@H]1[C@H]2CN[C@@H]1C2 [Example 235] | ≤ 0.1 | ≤ 0.1
14 | Cc1nc2c(F)c(-c3cccc(Cl)c3Cl)c(CCC#N)cc2c2c1cc([C@H]1C[C@H](OC3CC3C(=O)NC(C)(C)C)CN1C(=O)C1CC1)n2[C@H]1[C@H]2CN[C@@H]1C2 (some centres unmarked) [Example 378] | ≤ 0.1 | ≤ 0.1
15 | Cc1nc2c(F)c(-c3cccc(Cl)c3Cl)c(CCC#N)cc2c2c1cc([C@H]1C[C@H](O[C@H]3CCOC3)CN1C(=O)C1CC1)n2[C@H]1[C@H]2CN[C@@H]1C2 [Example 365] | ≤ 0.1 | ≤ 0.1
16 | COC1CN(c2cc(O[C@H]3C[C@H](c4cc5c(C)nc6c(F)c(-c7cccc(Cl)c7Cl)c(CCC#N)cc6c5n4[C@H]4[C@H]5CN[C@@H]4C5)N(C(=O)C4CC4)C3)ccn2)C1 [Example 366] | ≤ 0.1 | ≤ 0.1
17 | Cc1nc2c(F)c(-c3cccc(Cl)c3Cl)c(CCC#N)cc2c2c1cc([C@H]1C[C@H](Oc3cccc(F)c3)CN1C(=O)C1CC1)n2[C@H]1[C@H]2CN[C@@H]1C2 [Example 122] | ≤ 0.1 | ≤ 0.1
18 | Cc1nc2c(F)c(-c3cccc(Cl)c3Cl)c(CCC#N)cc2c2c1cc([C@H]1C[C@H](n3cc(C4(C(C)(F)F)CC4)nn3)CN1C(=O)C1CC1)n2[C@H]1[C@H]2CN[C@@H]1C2 [Example 382] | ≤ 0.1 | ≤ 0.1
19 | Cc1nc2c(F)c(-c3cccc(Cl)c3Cl)c(CCC#N)cc2c2c1cc([C@H]1C[C@H](n3nncc3-c3ccccc3)CN1C(=O)C1CC1)n2[C@H]1[C@H]2CN[C@@H]1C2 [Example 143] | ≤ 0.1 | ≤ 0.1
20 | Cc1nc2c(F)c(-c3cccc(Cl)c3Cl)c(CCC#N)cc2c2c1cc([C@H]1C[C@H](Oc3nn(C)c4ccccc34)CN1C(=O)C1CC1)n2[C@H]1[C@H]2CN[C@@H]1C2 [Example 192] | ≤ 0.1 | ≤ 0.1

Row | Compound | IC50 [1] [µM] | IC50 [2] [µM]
21 | Cc1nc2c(F)c(-c3cccc(Cl)c3Cl)c(CCC#N)cc2c2c1cc([C@H]1C[C@H](n3ncnn3)CN1C(=O)C1CC1)n2[C@H]1[C@H]2CN[C@@H]1C2 [Example 396] | ≤ 0.1 | ≤ 0.1
22 | C[C@@H](O)c1nc2c(F)c(-c3cccc(Cl)c3Cl)c(CCC#N)cc2c2c1cc([C@H]1C[C@H](Oc3cc(F)ccn3)CN1C(=O)C1CC1)n2[C@H]1C2CNC1C2 (some centres unmarked) [Example 425] | ≤ 0.1 | ≤ 0.1
23 | Cc1nc2c(F)c(-c3cccc(Cl)c3Cl)c(CCC#N)cc2c2c1cc([C@H]1C[C@H](Oc3ccccc3)CN1C(=O)C1CC1)n2[C@H]1[C@H]2CN[C@@H]1C2 [Example 103] | ≤ 0.1 | ≤ 0.1
24 | COc1cccc(CO[C@H]2C[C@H](c3cc4c(C)nc5c(F)c(-c6cccc(Cl)c6Cl)c(CCC#N)cc5c4n3[C@H]3[C@H]4CN[C@@H]3C4)N(C(=O)C3CC3)C2)n1 [Example 267] | ≤ 0.1 | ≤ 0.1
25 | Cc1nc2c(F)c(-c3cccc(Cl)c3Cl)c(CCC#N)cc2c2c1cc([C@H]1C[C@H](OCc3ccccn3)CN1C(=O)C1CC1)n2[C@H]1[C@H]2CN[C@@H]1C2 [Example 94] | ≤ 0.1 | ≤ 0.1
26 | Cc1nc2c(F)c(-c3cccc(Cl)c3Cl)c(CCC#N)cc2c2c1cc([C@H]1C[C@H](Oc3ccn(C)c(=O)c3)CN1C(=O)C1CC1)n2[C@H]1[C@H]2CN[C@@H]1C2 [Example 419] | ≤ 0.1 | ≤ 0.1
27 | N#CCCc1cc2c(nc(-c3ccc(N4CCOCC4)nc3)c3cc([C@H]4C[C@H](OCc5c(F)cccc5F)CN4C(=O)C4CC4)n([C@H]4[C@H]5CN[C@@H]4C5)c32)c(F)c1-c1cccc(Cl)c1Cl [Example 206] | ≤ 0.1 | 0.1 to 1
28 | CO[C@H]1C[C@H](CO[C@H]2C[C@H](c3cc4c(C)nc5c(F)c(-c6cccc(Cl)c6Cl)c(CCC#N)cc5c4n3[C@H]3[C@H]4CN[C@@H]3C4)N(C(=O)C3CC3)C2)C1 [Example 401] | ≤ 0.1 | ≤ 0.1
29 | COC(=O)c1cccc(O[C@H]2C[C@H](c3cc4c(C)nc5c(F)c(-c6cccc(Cl)c6Cl)c(CCC#N)cc5c4n3[C@H]3[C@H]4CN[C@@H]3C4)N(C(=O)C3CC3)C2)c1 [Example 189] | ≤ 0.1 | ≤ 0.1
30 | COc1ncc(Cl)cc1O[C@H]1C[C@H](c2cc3c(C)nc4c(F)c(-c5cccc(Cl)c5Cl)c(CCC#N)cc4c3n2[C@H]2[C@H]3CN[C@@H]2C3)N(C(=O)C2CC2)C1 [Example 448] | ≤ 0.1 | ≤ 0.1
31 | Cc1nc2c(F)c(-c3cccc(Cl)c3Cl)c(CCC#N)cc2c2c1cc([C@H]1C[C@H](OCc3ccns3)CN1C(=O)C1CC1)n2[C@H]1[C@H]2CN[C@@H]1C2 [Example 257] | ≤ 0.1 | ≤ 0.1
32 | Cc1ccc(CO[C@H]2C[C@H](c3cc4c(C)nc5c(F)c(-c6cccc(Cl)c6Cl)c(CCC#N)cc5c4n3[C@H]3[C@H]4CN[C@@H]3C4)N(C(=O)C3CC3)C2)cc1 [Example 92] | ≤ 0.1 | ≤ 0.1
33 | CNC(=O)c1cccc(O[C@H]2C[C@H](c3cc4c(C)nc5c(F)c(-c6cccc(Cl)c6Cl)c(CCC#N)cc5c4n3[C@H]3[C@H]4CN[C@@H]3C4)N(C(=O)C3CC3)C2)c1 [Example 173] | ≤ 0.1 | ≤ 0.1
34 | Cc1nc2c(F)c(-c3cccc(Cl)c3Cl)c(CCC#N)cc2c2c1cc([C@H]1C[C@H](n3cc(Cc4ccccc4)nn3)CN1C(=O)C1CC1)n2[C@H]1[C@H]2CN[C@@H]1C2 [Example 145] | ≤ 0.1 | ≤ 0.1
35 | Cc1nn(CC(F)F)cc1O[C@H]1C[C@H](c2cc3c(C)nc4c(F)c(-c5cccc(Cl)c5Cl)c(CCC#N)cc4c3n2[C@H]2[C@H]3CN[C@@H]2C3)N(C(=O)C2CC2)C1 [Example 408] | ≤ 0.1 | ≤ 0.1
36 | Cc1nc2c(F)c(-c3cccc(Cl)c3Cl)c(CCC#N)cc2c2c1cc([C@H]1C[C@H](OCc3cc(F)ccc3C#N)CN1C(=O)C1CC1)n2[C@H]1[C@H]2CN[C@@H]1C2 [Example 157] | ≤ 0.1 | ≤ 0.1
37 | Cc1nc2c(F)c(-c3cccc(Cl)c3Cl)c(CCC#N)cc2c2c1cc([C@H]1C[C@H](Oc3ccccc3OC(F)F)CN1C(=O)C1CC1)n2[C@H]1[C@H]2CN[C@@H]1C2 [Example 248] | ≤ 0.1 | ≤ 0.1
38 | Cc1nc2c(F)c(-c3cccc(Cl)c3Cl)c(CCC#N)cc2c2c1cc([C@H]1C[C@H](OCc3nccs3)C(C)(C)N1C(=O)C1CC1)n2[C@H]1[C@H]2CN[C@@H]1C2 [Example 405] | ≤ 0.1 | ≤ 0.1
39 | COc1cnn([C@H]2C[C@H](c3cc4c(C)nc5c(F)c(-c6cccc(Cl)c6Cl)c(CCC#N)cc5c4n3[C@H]3[C@H]4CN[C@@H]3C4)N(C(=O)C3CC3)C2)c1 [Example 352] | ≤ 0.1 | ≤ 0.1
40 | Cc1nc2c(F)c(-c3cccc(Cl)c3Cl)c(CCC#N)cc2c2c1cc([C@H]1C[C@H](n3cc(C(C)N4CCOC4=O)nn3)CN1C(=O)C1CC1)n2[C@H]1[C@H]2CN[C@@H]1C2 (some centres unmarked) [Example 325] | ≤ 0.1 | ≤ 0.1
